Experimental data taken from patent US20020025331A1, “Cosmetic compositions containing substituted amine derivatives” (priority 2000, published 2002).
Where two headings read alike, the source gives them in different places.

System: human sebocytes
Assay: Sebum suppression in cultured human sebocytes (14C-acetate incorporation), alone or with retinol
Assay type: cell-based
Conditions: for sebum suppressive activity (in words): agent alone, summary of Tables 1-6
Procedure: Compounds A through E were tested for their potential to suppress sebum expression, alone or in the presence of a retinoid.
Secondary cultures of human sebocytes obtained from an adult […] were grown in 48-well tissue culture plates (Costar Corp.; Cambridge, MA) or 96-well tissue culture plates (Packard Co.; Meriden, CT) until confluent.
Sebocyte growth medium consisted of Clonetics Keratinocyte Basal Medium (KBM) supplemented with 14 μg/ml bovine pituitary extract, 0.4 μg/ml hydrocortisone, 5 μg/ml insulin, […], 1.2 ×10^-10 M cholera toxin, 100 units/ml penicillin, and 100 μg/ml streptomycin.
All cultures were incubated at 37° C. in the presence of 7.5% CO2. Medium was changed three times per week.
On the day of experimentation, the growth medium was removed and the sebocytes washed three times with sterile Dulbecco's Modified Eagle Medium (DMEM; phenol red free). Fresh DMEM was added to each sample (duplicates, triplicates, or quadruplicates depending on the experiment) with 5 microliter of test agent solubilized in ethanol either alone or in the presence of one or 10 micromolar of retinol. Controls consisted of addition of ethanol alone, retinol alone, or phenol red, which has estrogen-like activity and is included as a positive control.
Each plate was returned to the incubator for 20 hours followed by the addition of 14C-acetate buffer (5 mM final concentration, 56 mCi/mmol specific activity). Sebocytes were returned to the incubator for four hours after which each culture was rinsed three times with phosphate buffered saline to remove unbound label. Radioactive label remaining in the sebocytes was harvested and counted using a Beckman scintillation counter.

CSc1ccc(NC(C)CC(c2ccccc2)c2c(O)c3ccccc3oc2=O)cc1 (centres unmarked) [Compound A]
% of Control (Experiment A, 1 μM test agent + 10 μM Retinol): 94.3%
% of Control (Experiment A, 1 μM test agent alone): 93.8%
% of Control (Experiment A, 10 μM test agent + 10 μM Retinol): 88.6%
% of Control (Experiment A, 10 μM test agent alone): 78.1%
% of Control (Experiment A, 100 μM test agent + 10 μM Retinol): 6.2%
% of Control (Experiment A, 100 μM test agent alone): 12.5%
% of Control (Experiment B (n = 3), 1 μM test agent + 1 μM Retinol): 93.3%
% of Control (Experiment B (n = 3), 1 μM test agent + 10 μM Retinol): 85.4%
% of Control (Experiment B (n = 3), 1 μM test agent alone): 102.1%
% of Control (Experiment B (n = 3), 10 μM test agent + 1 μM Retinol): 80.2%
% of Control (Experiment B (n = 3), 10 μM test agent + 10 μM Retinol): 78.6%
% of Control (Experiment B (n = 3), 10 μM test agent alone): 89.4%
% of Control (Experiment B (n = 3), 100 μM test agent + 1 μM Retinol): 19.7%
% of Control (Experiment B (n = 3), 100 μM test agent + 10 μM Retinol): 26.5%
% of Control (Experiment B (n = 3), 100 μM test agent alone): 23.5%
sebum suppressive activity (in words): had sebum suppressive activity

COc1ccc(OC)c(C(C)NC/C=C(\C)CCC=C(C)C)c1 (centres unmarked) [Compound C]
% of Control (96 Well Plate (n = 2), 10 μM test agent + 1 μM Retinol): 45.2%
% of Control (96 Well Plate (n = 2), 10 μM test agent alone): 72.3%
% of Control (96 Well Plate (n = 2), 50 μM test agent + 1 μM Retinol): 0.3%
% of Control (96 Well Plate (n = 2), 50 μM test agent alone): 34.2%
sebum suppressive activity (in words): had sebum suppressive activity
sebum suppressive activity when combined with retinol / a retinoid (in words) (in the presence of a retinoid (retinol)): improved sebum suppressive activity

O=S1(=O)OC(c2ccc(O)cc2)(c2ccc(O)cc2)c2ccccc21 [Phenol Red, reference compound]
activity at 28 µM (Homo sapiens, Experiment B (n = 3), 28 μM alone, read-out: % of Control): 86.4%
activity at 280 µM (Homo sapiens, Experiment B (n = 3), 280 μM alone, read-out: % of Control): 52.2%
% Reduction (Table 3 (n = 4), 28 μM alone): 74.7%

CC1=C(/C=C/C(C)=C/C=C/C(C)=C/C=O)C(C)(C)CCC1 [Retinal, reference compound]
activity at 1 µM (Homo sapiens, Experiment B (n = 3), 1 μM test agent alone, read-out: % of Control): 104%
activity at 10 µM (Homo sapiens, Experiment B (n = 3), 10 μM test agent alone, read-out: % of Control): 101%

CC1=C(/C=C/C(C)=C/C=C/C(C)=C/CO)C(C)(C)CCC1 [Retinol, reference compound]
activity at 10 µM (Homo sapiens, Experiment A, 10 μM test agent alone, read-out: % of Control): 98.3%
sebum suppressive activity (in words): inactive
